Results as given in patent US10548942B2, “CXCR antagonistic peptides and uses thereof” (STC.UNM, priority 2013, dated 2020).
“Also recorded” adds a separate entry of the source.

Key:
cortical neurons = experiment: oxygen-glucose deprivation (OGD) model of stroke in primary neurons; format: cell-based, rat; conditions: for protection from OGD: treatment at reoxygenation or 5, 15, 30, or 60 minutes after reoxygenation, vs vehicle
Description: Cortical neurons were obtained from Sprague-Dawley rat embryos at day 18 of gestation. Cortices were triturated digested with 0.025% trypsin in phosphate buffer saline (PBS) for 10 minutes. Digestion was stopped by the addition of Dulbecco's Modified Eagle Medium (DMEM) containing 10% fetal bovine serum (FBS). Trypsinized cells were filtered using […] disposable cell filters (Becton-Dickinson), washed twice with Neurobasal medium (Gibco) containing 4% FBS, and preplated 4 times for 30 minutes in 150 mm vacuum-plasma treated dishes (Becton-Dickinson). During these preplating steps, primarily non-neuronal cells adhere to the dish, thereby enriching the neuronal population. Enriched neurons were plated at a density of 50×10^3/cm2 in Neurobasal medium containing 4% FBS, 25 μM Glutamax (Gibco), and penicillin-streptomycin (Gibco) in while clear-bottomed 96-well plates (353377) or 24-well plates (353226) (Becton-Dickinson) coaled overnight with 50 μg/ml poly-D-lysine. At plating, spaces between wells in 96-well plates were filled with 50 μl sterile water to minimize evaporation of medium at the edges of the dish. Twenty-four hours later (1 day in vitro, 1 DIV), 50% of the medium was replaced with Neurobasal medium, 2% B27 (Gibco), and 4 μM cytosine arabinoside (AraC) (2 μM AraC final). At 5 DIV, 50% of the medium was replaced with Neurobasal, 2% B27. At 7 DIV, cortical cultures were 98% neurons as assessed by microtubule-associated protein 2 (MAP2) antibody labeling and flow cytometry analysis (data not shown).
Cortical neurons were deprived of oxygen and glucose by incubation in deoxygenated glucose-free Hank's buffered saline solution (HBSS). HBSS was prepared as follows: sodium chloride, NaCl, 8.0 g/L, potassium chloride, KCl, 0.4 g/L, potassium phosphate monobasic, KH2PO4, 0.06 g/L, sodium phosphate dibasic, Na2HPO4, 0.048 g/L, magnesium sulfate. MgSO4, 0.098 g/L, calcium chloride, CaCl2, 0.14 g/L, sodium bicarbonate, NaHCO3, 0.35 g/L, D-glucose, C6H12O6, 1.0 g/L. Solutions were adjusted to pH 7.4 and sterilized by vacuum filtration through 0.2 μm polyether sulfone (PES) membranes. Glucose-free HBSS was prepared by omitting glucose and adding an additional half molar amount of NaCl to adjust osmolarity (8.162 g/L NaCl). Glucose-free HBSS was deoxygenated in a gas washing bottle with 95% nitrogen, 5% CO2 for 20 minutes at a flow rate of 3 L/min in a 37° C. water bath. Culture dishes were washed twice with deoxygenated glucose-free HBSS and incubated for 2 hours in glucose-free deoxygenated HBSS (OGD). Normoxic control cells were handled identically but were incubated in a 5% CO2 incubator with normal HBSS pre-equilibrated in a 5% CO2 atmosphere overnight. […]

CXCR2 receptor = target: T1, CXCR2 receptor (Rattus norvegicus, UniProt P35407); experiment: ac-PGP-induced apoptosis in primary cortical neurons, TUNEL stain; format: cell-based
T1 construct: endogenous in cells; host or cells: primary cortical neurons from Sprague-Dawley rat embryos (E18)
T1 sequence (P35407 1-359): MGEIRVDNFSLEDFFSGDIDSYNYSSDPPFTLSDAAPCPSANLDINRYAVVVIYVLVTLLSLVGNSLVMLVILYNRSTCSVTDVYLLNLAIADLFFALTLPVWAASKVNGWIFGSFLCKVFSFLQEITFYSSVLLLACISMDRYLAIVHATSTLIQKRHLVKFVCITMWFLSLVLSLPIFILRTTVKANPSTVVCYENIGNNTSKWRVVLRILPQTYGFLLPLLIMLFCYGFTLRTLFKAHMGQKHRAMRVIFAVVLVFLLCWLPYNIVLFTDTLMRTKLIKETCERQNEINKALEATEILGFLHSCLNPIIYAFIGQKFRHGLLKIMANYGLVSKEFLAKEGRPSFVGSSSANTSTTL
Description: First, the mechanism by which ac-PGP induces apoptosis in cortical neurons was investigated. Because ac-PGP is reported to engage neutrophil CXCR2 receptors, whether an established CXCR2 receptor antagonist, SB225002, could influence ac-PGP neurotoxicity was tested.
Cortical neurons were obtained from Sprague-Dawley rat embryos at day 18 of gestation. Cortices were triturated digested with 0.025% trypsin in phosphate buffer saline (PBS) for 10 minutes. Digestion was stopped by the addition of Dulbecco's Modified Eagle Medium (DMEM) containing 10% fetal bovine serum (FBS). Trypsinized cells were filtered using […] disposable cell filters (Becton-Dickinson), washed twice with Neurobasal medium (Gibco) containing 4% FBS, and preplated 4 times for 30 minutes in 150 mm vacuum-plasma treated dishes (Becton-Dickinson). During these preplating steps, primarily non-neuronal cells adhere to the dish, thereby enriching the neuronal population. […] At 7 DIV, cortical cultures were 98% neurons as assessed by microtubule-associated protein 2 (MAP2) antibody labeling and flow cytometry analysis (data not shown). […]
Cortical neurons were obtained from Sprague-Dawley rat embryos at day 18 of gestation. […] At 7 DIV, cortical cultures were 98% neurons as assessed by microtubule-associated protein 2 (MAP2) antibody labeling and flow cytometry analysis (data not shown).

For `O=C(Nc1ccc([N+](=O)[O-])cc1O)Nc1ccccc1Br` [SB225002], the “neuronal protection compared to administration at reoxygenation” value (cortical neurons; administered at 15 minutes post-reoxygenation) was “significantly decreased; also recorded: significantly declined”, the “apoptosis after 2-hour OGD” value (cortical neurons; pretreatment, 24-hour reoxygenation, vs vehicle-treated controls) was “significantly less apoptotic; also recorded: significant protection from OGD” and the “protection from OGD” value (cortical neurons) was “significant protection”. The “protection from OGD” value (cortical neurons; listed as SB2225002) was “provided neuroprotection”, the “ac-PGP-induced apoptosis (TUNEL stain), dose comparison” value (CXCR2 receptor; 1 nM vs 0.01 and 0.1 nM) was “significantly less apoptotic” and the “ac-PGP-induced apoptosis (TUNEL stain)” value (CXCR2 receptor; pretreatment of primary cortical neurons before ac-PGP exposure, all doses, vs ac-PGP alone) was “significantly less apoptotic; also recorded: blocked ac-PGP neurotoxicity”.
